Data from patent publication US10626144B2, “Peptide derivatives and uses thereof” (Nosopharm, priority 2014, dated 2020).
Numbered stars: 1 amine (or outer) side, 2 acyl side, 3 side chain; on linkers, the order of the positions; unused ones are H or OH. Square brackets hold non-standard residues; d marks the D form. Peptide text beside a SMILES is read from it. * marks the point of attachment. X3 = NC[C@H](OC(=O)C(F)(F)F)[C@H](N[*:1])C(=O)[*:2]; Phe(3-CONH2) = NC(=O)c1cccc(C[C@H](N)C(=O)O)c1; Phe(4-COOH) = N[C@@H](Cc1ccc(C(=O)O)cc1)C(=O)O; Phe(3-F) = N[C@@H](Cc1cccc(F)c1)C(=O)O; Dab(3S-OH) = NC[C@H](O)[C@H](N)C(=O)O; X5 = O=C(C(N[*:1])c1cccs1)[*:2]; ΔZArg = N=C(N)NCC/C=C(\N)C(=O)O; Lys(Me) = CNCCCC[C@H](N)C(=O)O; dOrn = NCCC[C@@H](N)C(=O)O; Orn = NCCC[C@H](N)C(=O)O; Nva = CCC[C@H](N)C(=O)O; NH(CH2)4NH2 = NCCCCN*; NHiPr = CC(C)N*

Assays:
Test in all cases: MIC, broth microdilution (CLSI), reference strain
Settings in all cases: CAMHB
[1] = tested on: Acinetobacter baumannii ATCC 19606
[2] = tested on: Staphylococcus aureus ATCC 13709
[3] = tested on: Escherichia coli ATCC 25922
[4] = tested on: Pseudomonas aeruginosa ATCC 27853

Row | Compound | Ab: MIC Acinetobacter baumannii ATCC 19606 [1] | Sa: MIC Staphylococcus aureus ATCC 13709 [2] | Ec: MIC Escherichia coli ATCC 25922 [3] | Pa: MIC Pseudomonas aeruginosa ATCC 27853 [4]
1 | CNCCCC[C@H](N)C(=O)N[C@H](C(=O)N[C@@H](C)C(=O)NCC(=O)N[C@H](CCCN)C(=O)N1CCC[C@H]1C(=O)N[C@@H](Cc1cnc[nH]1)C(=O)N[C@@H](CCCCN)C(=O)N/C(=C\CCNC(=N)N)C(=O)O)[C@@H](O)CN [24.149] (H-[Lys(Me)][Dab(3S-OH)]AG[dOrn]PHK[ΔZArg]-OH) | − (>32 μg/mL) | + (≤32 μg/mL) | + (≤32 μg/mL) | − (>32 μg/mL)
2 | C[C@H](NC(=O)[C@@H](NC(=O)[C@@H](N)CCCN)[C@@H](O)CN)C(=O)NCC(=O)N[C@H](CCCN)C(=O)N1CCC[C@H]1C(=O)N[C@@H](Cc1cnc[nH]1)C(=O)N[C@@H](CCCCN)C(=O)N/C(=C\CCNC(=N)N)C(N)=O [24.150] (H-[Orn][Dab(3S-OH)]AG[dOrn]PHK[ΔZArg]-NH2) | − (>32 μg/mL) | ++ (≤8 μg/mL) | + (≤32 μg/mL) | − (>32 μg/mL)
3 | CNCCCC[C@H](NC(=O)[C@H](Cc1cnc[nH]1)NC(=O)[C@@H]1CCCN1C(=O)[C@@H](CCCN)NC(=O)CNC(=O)[C@H](C)NC(=O)[C@@H](NC(=O)[C@@H](N)CCCCN)[C@@H](O)CN)C(=O)N[C@H](CCCNC(=N)N)C(N)=O [24.155] (H-K[Dab(3S-OH)]AG[dOrn]PH[Lys(Me)][dR]-NH2) | − (>32 μg/mL) | ++ (≤8 μg/mL) | − (>32 μg/mL) | − (>32 μg/mL)
4 | C[C@H](NC(=O)[C@@H](NC(=O)[C@@H](N)CCCCN)[C@@H](O)CN)C(=O)NCC(=O)N[C@H](CCCN)C(=O)N1CCC[C@H]1C(=O)NC(C(=O)N[C@@H](CCCCN)C(=O)N/C(=C\CCNC(=N)N)C(=O)O)c1cccs1 (stereo partly drawn) [24.157] (H-K[Dab(3S-OH)]AG[dOrn]P[X5]K[ΔZArg]-OH) | − (>32 μg/mL) | + (≤32 μg/mL) | − (>32 μg/mL) | − (>32 μg/mL)
5 | C[C@H](NC(=O)[C@@H](NC(=O)[C@@H](N)CCCCN)[C@@H](O)CN)C(=O)NCC(=O)N[C@H](CCCN)C(=O)N1CCC[C@H]1C(=O)N[C@@H](C)C(=O)N[C@@H](CCCCN)C(=O)N/C(=C\CCNC(=N)N)C(=O)O [24.158] (H-K[Dab(3S-OH)]AG[dOrn]PAK[ΔZArg]-OH) | − (>32 μg/mL) | + (≤32 μg/mL) | − (>32 μg/mL) | − (>32 μg/mL)
6 | COC(=O)/C(=C/CCNC(=N)N)NC(=O)[C@H](CCCCN)NC(=O)[C@H](Cc1cnc[nH]1)NC(=O)[C@@H]1CCCN1C(=O)[C@@H](CCCN)NC(=O)CNC(=O)[C@H](C)NC(=O)[C@@H](NC(=O)[C@@H](N)CCCCN)[C@@H](O)CN [24.160] (H-K[Dab(3S-OH)]AG[dOrn]PHK[ΔZArg]-OMe) | − (>32 μg/mL) | ++ (≤8 μg/mL) | ++ (≤8 μg/mL) | − (>32 μg/mL)
7 | C[C@H](NC(=O)[C@@H](NC(=O)[C@@H](N)CCCCN)[C@@H](O)CN)C(=O)NCC(=O)N[C@H](CCCN)C(=O)N1CCC[C@H]1C(=O)N[C@@H](Cc1ccc(C(=O)O)cc1)C(=O)N[C@@H](CCCCN)C(=O)N/C(=C\CCNC(=N)N)C(=O)O [24.161] (H-K[Dab(3S-OH)]AG[dOrn]P[Phe(4-COOH)]K[ΔZArg]-OH) | − (>32 μg/mL) | ++ (≤8 μg/mL) | ++ (≤8 μg/mL) | − (>32 μg/mL)
8 | CC(C)NC(=O)/C(=C/CCNC(=N)N)NC(=O)[C@H](CCCCN)NC(=O)[C@H](Cc1cnc[nH]1)NC(=O)[C@@H]1CCCN1C(=O)[C@@H](CCCN)NC(=O)CNC(=O)[C@H](C)NC(=O)[C@@H](NC(=O)[C@@H](N)CCCCN)[C@@H](O)CN [24.162] (H-K[Dab(3S-OH)]AG[dOrn]PHK[ΔZArg]-NHiPr) | − (>32 μg/mL) | ++ (≤8 μg/mL) | + (≤32 μg/mL) | − (>32 μg/mL)
9 | C[C@@H](O)[C@H](NC(=O)[C@@H](NC(=O)[C@@H](N)CCCCN)[C@@H](O)CN)C(=O)NCC(=O)N[C@H](CCCN)C(=O)N1CCC[C@H]1C(=O)N[C@@H](Cc1cnc[nH]1)C(=O)N[C@@H](CCCCN)C(=O)N/C(=C\CCNC(=N)N)C(=O)O [25.3] (H-K[Dab(3S-OH)]TG[dOrn]PHK[ΔZArg]-OH) | − (>32 μg/mL) | + (≤32 μg/mL) | + (≤32 μg/mL) | − (>32 μg/mL)

Results, then the compound that gave them:

Row | Ab: MIC Acinetobacter baumannii ATCC 19606 [1] | Sa: MIC Staphylococcus aureus ATCC 13709 [2] | Ec: MIC Escherichia coli ATCC 25922 [3] | Pa: MIC Pseudomonas aeruginosa ATCC 27853 [4] | Compound
10 | + (≤32 μg/mL) | ++ (≤8 μg/mL) | ++ (≤8 μg/mL) | ++ (≤8 μg/mL) | N=C(N)NCC/C=C(\NC(=O)[C@H](CCCCN)NC(=O)[C@H](Cc1cnc[nH]1)NC(=O)[C@@H]1CCCN1C(=O)[C@@H](CCCN)NC(=O)CNC(=O)[C@H](CO)NC(=O)[C@@H](NC(=O)[C@@H](N)CCCCN)[C@@H](O)CN)C(=O)N[C@@H](CCCCN)C(=O)NCCCCN [26.1] (H-K[Dab(3S-OH)]SG[dOrn]PHK[ΔZArg]K-{NH(CH2)4NH2})
11 | − (>32 μg/mL) | + (≤32 μg/mL) | + (≤32 μg/mL) | − (>32 μg/mL) | N=C(N)NCC/C=C(\NC(=O)[C@H](CCCCN)NC(=O)[C@H](Cc1cnc[nH]1)NC(=O)[C@@H]1CCCN1C(=O)[C@@H](CCCN)NC(=O)CNC(=O)[C@H](CO)NC(=O)[C@@H](NC(=O)[C@@H](N)CCCCN)[C@@H](O)CN)C(=O)O [26.2] (H-K[Dab(3S-OH)]SG[dOrn]PHK[ΔZArg]-OH)
12 | − (>32 μg/mL) | + (≤32 μg/mL) | − (>32 μg/mL) | − (>32 μg/mL) | CC(C)C[C@H](NC(=O)[C@@H](NC(=O)[C@@H](N)CCCCN)[C@@H](O)CN)C(=O)NCC(=O)N[C@H](CCCN)C(=O)N1CCC[C@H]1C(=O)N[C@@H](Cc1cnc[nH]1)C(=O)N[C@@H](CCCCN)C(=O)N/C(=C\CCNC(=N)N)C(=O)N[C@@H](CCCCN)C(=O)NCCCCN [29.1] (H-K[Dab(3S-OH)]LG[dOrn]PHK[ΔZArg]K-{NH(CH2)4NH2})
13 | − (>32 μg/mL) | ++ (≤8 μg/mL) | + (≤32 μg/mL) | − (>32 μg/mL) | N=C(N)NCC/C=C(\NC(=O)[C@H](CCCCN)NC(=O)[C@H](Cc1cnc[nH]1)NC(=O)[C@@H]1CCCN1C(=O)[C@@H](CCCN)NC(=O)CNC(=O)[C@@H](NC(=O)[C@@H](NC(=O)[C@@H](N)CCCCN)[C@H](CN)OC(=O)C(F)(F)F)[C@@H](O)CN)C(=O)N[C@@H](CCCCN)C(=O)NCCCCN [32.1] (H-K[X3][Dab(3S-OH)]G[dOrn]PHK[ΔZArg]K-{NH(CH2)4NH2})
14 | − (>32 μg/mL) | ++ (≤8 μg/mL) | − (>32 μg/mL) | − (>32 μg/mL) | CCC[C@H](NC(=O)[C@@H](NC(=O)[C@@H](N)CCCCN)[C@@H](O)CN)C(=O)NCC(=O)N[C@H](CCCN)C(=O)N1CCC[C@H]1C(=O)N[C@@H](Cc1cnc[nH]1)C(=O)N[C@@H](CCCCN)C(=O)N/C(=C\CCNC(=N)N)C(=O)N[C@@H](CCCCN)C(=O)NCCCCN [210.1] (H-K[Dab(3S-OH)][Nva]G[dOrn]PHK[ΔZArg]K-{NH(CH2)4NH2})
15 | + (≤32 μg/mL) | ++ (≤8 μg/mL) | ++ (≤8 μg/mL) | ++ (≤8 μg/mL) | N=C(N)NCC/C=C(\NC(=O)[C@H](CCCCN)NC(=O)[C@H](Cc1cnc[nH]1)NC(=O)[C@@H]1CCCN1C(=O)[C@@H](CCCN)NC(=O)CNC(=O)[C@H](CCCN)NC(=O)[C@@H](NC(=O)[C@@H](N)CCCCN)[C@@H](O)CN)C(=O)N[C@@H](CCCCN)C(=O)NCCCCN [211.1] (H-K[Dab(3S-OH)][Orn]G[dOrn]PHK[ΔZArg]K-{NH(CH2)4NH2})
16 | − (>32 μg/mL) | ++ (≤8 μg/mL) | + (≤32 μg/mL) | − (>32 μg/mL) | N=C(N)NCC/C=C(\NC(=O)[C@H](CCCCN)NC(=O)[C@H](Cc1cnc[nH]1)NC(=O)[C@@H]1CCCN1C(=O)[C@@H](CCCN)NC(=O)CNC(=O)[C@H](CCCN)NC(=O)[C@@H](NC(=O)[C@@H](N)CCCCN)[C@@H](O)CN)C(=O)O [211.2] (H-K[Dab(3S-OH)][Orn]G[dOrn]PHK[ΔZArg]-OH)
17 | − (>32 μg/mL) | ++ (≤8 μg/mL) | ++ (≤8 μg/mL) | − (>32 μg/mL) | N=C(N)NCC/C=C(\NC(=O)[C@H](CCCCN)NC(=O)[C@H](Cc1cccc(C(N)=O)c1)NC(=O)[C@@H]1CCCN1C(=O)[C@@H](CCCN)NC(=O)CNC(=O)[C@H](CCCN)NC(=O)[C@@H](NC(=O)[C@@H](N)CCCCN)[C@@H](O)CN)C(=O)O [211.3] (H-K[Dab(3S-OH)][Orn]G[dOrn]P[Phe(3-CONH2)]K[ΔZArg]-OH)
18 | − (>32 μg/mL) | ++ (≤8 μg/mL) | ++ (≤8 μg/mL) | − (>32 μg/mL) | N=C(N)NCC/C=C(\NC(=O)[C@H](CCCCN)NC(=O)[C@H](Cc1cccc(F)c1)NC(=O)[C@@H]1CCCN1C(=O)[C@@H](CCCN)NC(=O)CNC(=O)[C@H](CCCN)NC(=O)[C@@H](NC(=O)[C@@H](N)CCCCN)[C@@H](O)CN)C(=O)O [211.4] (H-K[Dab(3S-OH)][Orn]G[dOrn]P[Phe(3-F)]K[ΔZArg]-OH)
